The test has as its system AAMU-Ab. Kind of test: Competitive antigen ELISA, cross-reactivity of AAMU-Ab. The conditions noted are these: 0 = absence of inhibition or inhibition no higher than 40% at highest concentration tested (5 × 10^−3 M). It is filed as binding, rabbit. As for the experimental part:
Competitive Antigen ELISA
Buffers and water without additives are filtered through millipore filters and kept for 1 week. BSA, antibodies, Tween™ 20 and horse radish peroxidase conjugates are added to these buffers and water just prior to use. Urine samples are usually collected 4 hours after drinking a cup of coffee (instant or brewed with approximately 100 mg of caffeine per cup) and stored at −80° C. The urine samples are diluted 10 times with sodium phosphate buffer (620 mosm, pH 7.50) and are subsequently diluted with water to give concentrations of AAMU and 1× no higher than 3×10^−6 M in the ELISA. All the pipettings are done with an eight-channel pipette, except those of the antibody and sample solutions. Starting with the last well, 100 μL of a carbonate buffer (100 mM, pH 9.6) containing 2.5 μg mL^−1 antibodies are added to each well. After 90 min. at room temperature, the wells are washed three times with […] of TPB: isotonic sodium phosphate buffer (310 mosm, pH 7.50) containing 0.05% Tween™ 20.
After the initial wash, unoccupied sites are blocked by incubation for 90 min. at room temperature with 100 μL TBP containing 3% BSA. The wells are washed four times with 100 μL TPB. […] The microplate is gently shaken with an orbital shaker at room temperature for 3-4 hours. […]
(ELISA stands for enzyme-linked immunosorbent assay.)

One compound from patent US20030170176A1, “Individualization of therapy with antipsychotics” (McGill University, priority 2001, published 2003) can be followed below.

Turning to `O=c1[nH]c(=O)c2[nH]cnc2[nH]1` [Xanthine], the “% Cross-Reaction AAMU-Ab” value was determined as 0a %.
